Measured values reported in ChEMBL document CHEMBL5584294, “Adpressins A-G: Oligophenalenone Dimers from Talaromyces adpressus” (J Nat Prod, 2024).

Assays:
T-cell = assay: Immunosuppressive activity in BALB/c mouse T-lymphocytes assessed as inhibition of ConA-induced cell proliferation pretreated with Concanavalin A for 24 hrs followed by compound addition and measured after 48 hrs by CCK-8 assay; assay type: functional, cell-based
B-cell line = assay: Immunosuppressive activity in BALB/c mouse B-lymphocytes assessed as inhibition of LPS-induced cell proliferation pretreated with LPS for 24 hrs followed by compound addition and measured after 48 hrs by CCK-8 assay; assay type: functional, cell-based

| Structure (SMILES) | IC50 (T-cell) [µM] | IC50 (B-cell line) [µM] |
| --- | --- | --- |
| CC(=O)O[C@H]1[C@@H]2C(=O)c3c(C)cc(O)c4c3[C@@]1(COC4=O)C1=C2c2c(C)cc(O)c3c2[C@@](O)(COC3=O)C1=O | > 40 | > 40 |
| CC(=O)O[C@H]1[C@@H]2C(=O)c3c(C)cc(O)c4c3[C@@]1(COC4=O)c1c(O)c3c4c(c(O)cc(C)c4c12)C(=O)O3 | > 40 | > 40 |
| COC(=O)C[C@H]1OC(=O)c2c(O)cc(C)c3c2C1=C(O)C1[C@]24COC(=O)c5c(O)cc(C)c(c52)C(=O)[C@@H]([C@@H]4OC(C)=O)[C@]31OC (stereo partly drawn) | > 40 | > 40 |
| Cc1cc(O)c2c3c1C(=O)[C@@H]1c4c(c5oc(=O)ccc5c5cc(O)cc(C)c45)[C@@]3(COC2=O)[C@H]1O | > 40 | > 40 |
| COC(=O)C[C@@H]1OC(=O)c2c(O)cc(C)c3c4c(c(O)c1c23)[C@]12COC(=O)c3c(O)cc(C)c(c31)C(=O)[C@H]4[C@@H]2O | > 40 | > 40 |
| CC1(C)C2CCC1(CS(=O)(=O)O)C(=O)C2 (stereo not drawn) | < 0.04 | < 0.04 |
| COC(=O)C[C@H]1OC(=O)c2c(O)cc(C)c3c4c(c(O)c1c23)[C@]12COC(=O)c3c(O)cc(C)c(c31)C(=O)[C@H]4[C@@H]2O | > 40 | > 40 |
| COC(=O)C[C@H]1OC(=O)c2c(O)cc(C)c3c4c(c(O)c1c23)[C@]12COC(=O)c3c(O)cc(C)c(c31)C(=O)[C@H]4[C@@H]2OC(C)=O | > 40 | > 40 |
| Cc1cc(O)c2c3c1C1=C(C(=O)C3C3CCCN3C2=O)[C@]23COC(=O)c4c(O)cc(C)c(c42)C(=O)[C@H]1[C@@H]3O (stereo partly drawn) | > 40 | > 40 |
